Legend:
secreted APP = test: ELISA for secreted APP in SHSY5Y cells; assay type: cell-based, human; details: 16 hours
Description: (§1) An enzyme-linked immunosorbent assay was developed to detect secreted APP in SHSY5Y cells, a human neuroblastoma cell line. The purpose of the screen was to discover small molecules that inhibit APP protein synthesis in SHSY5Y cells. SHSY5Y cells were plated at 1×10^5 cells/well in […] of DMEM containing 0.5% heat inactivated FBS in 96 well tissue culture treated plates (Falcon no. 35 3072). 144 MES compounds were tested at final concentrations of […] in 0.1% DMSO. Compounds were added and the plates incubated for 16 hours at 37° C./5% CO2. Maxisorp plates (Nunc no. 437958) were coated overnight with […] capture antibody (Biosource 44-100) diluted in Ca^++ and Mg^++ free PBS. Biosource 44-100 is a mouse mAb that recognizes aa 1-100 of human APP. Plates were blocked for 30 minutes with 1 mg/mL BSA in Ca^++ and Mg^++ free PBS. Plates were washed 3× with wash buffer (Ca^++ and Mg^++ free PBS+0.01% Tween20). […] of supernatants and non-cultured medium controls were transferred from culture plates to ELISA plates. Culture plates were reserved for toxicity analysis. Supernatants were incubated for 4 hours at RT on a plate shaker. After supernatant incubation, plates were washed 3×. Primary antibody (Signet Clone 6E-10 biotin) was added at 0.3125 mg/mL and incubated overnight at 4° C. The recognition site of 6E-10 is aa 1-17 of Ab. For detection, a 1:3000 dilution of horseradish peroxidase conjugated streptavidin (Endogen no. N-100) was incubated for 30 minutes. Plates were washed 3×. Enzyme activity was assessed by incubation with […] TMB substrate solution (Moss no. TMB-US) for 20 minutes. The reaction was stopped by the addition of […] 0.18M sulfuric acid. Optical density was read at 450 nm on Wallac Victor2 plate reader. During the first incubation, toxicity was determined using MTS assay, Cell Titer96 AQ reagent (Promega no. G5430). The background values from the non-cultured medium control were subtracted from the sample values and secreted APP levels and toxicity were expressed as % vehicle control. Of the 144 MES compounds screened, 12 inhibited secreted APP as determined by ELISA. The results are depicted in FIGS. 13A-M.
(§2) Using the experimental procedure outlined above, APP secretion and toxicity studies were performed on several other non-carbamate compounds, and the results are shown in Tables 3 and 4. The compound structures are provided in Table 2 in the application, which are identified by their MES number.

SH-SY-5Y Cells = test: MTS toxicity assay in SHSY5Y cells; assay type: cell-based, human
Description: as §1, §2

Row | Structure (SMILES) | APP Secretion by SH-SY-5Y Cells (secreted APP; Dose 0.08 uM) | APP Secretion by SH-SY-5Y Cells (secreted APP; Dose 0.25 uM) | APP Secretion by SH-SY-5Y Cells (secreted APP; Dose 0.74 uM) | APP Secretion by SH-SY-5Y Cells (secreted APP; Dose 2 uM) | APP Secretion by SH-SY-5Y Cells (secreted APP; Dose 6 uM) | APP Secretion by SH-SY-5Y Cells (secreted APP; Dose 20 uM) | APP Toxicity SH-SY-5Y Cells (MTS assay) (SH-SY-5Y Cells; Dose 0.08 uM) | APP Toxicity SH-SY-5Y Cells (MTS assay) (SH-SY-5Y Cells; Dose 0.25 uM) | APP Toxicity SH-SY-5Y Cells (MTS assay) (SH-SY-5Y Cells; Dose 0.74 uM) | APP Toxicity SH-SY-5Y Cells (MTS assay) (SH-SY-5Y Cells; Dose 2 uM) | APP Toxicity SH-SY-5Y Cells (MTS assay) (SH-SY-5Y Cells; Dose 6 uM) | APP Toxicity SH-SY-5Y Cells (MTS assay) (SH-SY-5Y Cells; Dose 20 uM)
1 | CC(Br)C(=O)N(C)c1ccc(O)cc1 (stereo not drawn) [MES 9291, Propionanilde] | 98.2 % vehicle control | 99.5 % vehicle control | 99.7 % vehicle control | 100.1 % vehicle control | 96.9 % vehicle control | 67.8 % vehicle control | 99.1 % vehicle control | 100.5 % vehicle control | 97.1 % vehicle control | 102.4 % vehicle control | 99.87 % vehicle control | 99 % vehicle control
2 | COc1ccc2c(c1)[C@@]1(C)CCN(Cc3ccccc3)C1N2Cc1ccccc1 (stereo partly drawn) [MES 9237] | – | – | – | 149.95 % vehicle control | 158.1 % vehicle control | 173.3 % vehicle control | – | – | – | 96.55 % vehicle control | 98.35 % vehicle control | 99.4 % vehicle control
3 | COc1ccc2c(c1)C1(C)CCN(C)C1N2 (stereo not drawn) [MES 9201] | – | – | – | 97.25 % vehicle control | 110.75 % vehicle control | 124.65 % vehicle control | – | – | – | 98.9 % vehicle control | 98.65 % vehicle control | 98.25 % vehicle control
4 | CN1C(=O)C(=O)c2ccccc21 [MES 9312] | – | – | – | 105.4 % vehicle control | 101.7 % vehicle control | 96.65 % vehicle control | – | – | – | 99.95 % vehicle control | 103.85 % vehicle control | 106.95 % vehicle control
5 | COc1ccc2c(c1)[C@]1(C)CCOC1N2C (stereo partly drawn) [MES 9318] | – | – | – | 104.05 % vehicle control | 103.4 % vehicle control | 108.75 % vehicle control | – | – | – | 96.2 % vehicle control | 96.45 % vehicle control | 96.05 % vehicle control
6 | COc1ccc2c(c1)[C@@](C)(CCN(C)C)C(=O)N2C [MES 9310] | – | – | – | 104.8 % vehicle control | 97.85 % vehicle control | 98.95 % vehicle control | – | – | – | 101.85 % vehicle control | 99.9 % vehicle control | 97.7 % vehicle control
7 | CN1c2ccc(OC3CCCCO3)cc2[C@]2(C)CCNC12 (single isomer, unassigned; (-)) [MES 9320, (−)-O-Tetrahydropyranyl-N-1-noreseroline] | – | – | – | 103.15 % vehicle control | 91.8 % vehicle control | 15.2 % vehicle control | – | – | – | 92 % vehicle control | 84 % vehicle control | 28 % vehicle control
8 | COc1ccc2c(c1)[C@]1(C)CCN(C)C1N2Cc1ccccc1 (stereo partly drawn) [MES 9242] | – | – | – | 116.75 % vehicle control | 116.3 % vehicle control | 116.1 % vehicle control | – | – | – | 94.2 % vehicle control | 89.8 % vehicle control | 80.95 % vehicle control
